The test system of one test is Tregs from CD patients. Briefly: Gene array of expanded Tregs from CD patients. It counts as cell-based, human. Conditions: compared to rapamycin only, n=3. On the procedure: Gene array analyses were carried out using Partek® software with a 1-way ANOVA to assess for differential gene expression.
1) RNA extraction was performed using Qiagen RNEasy mini/micro kits as per manufacturer's instructions. The samples were checked for RNA quality using the Agilent 2100 Bioanalyzer and quantified using the Nanodrop (ND-1000 Spectrophotometer). Samples which passed QC (RIN>8) were chosen such that input amount of each sample was 3 ng.
2) SPIA cDNA was generated using the “Ovation Pico WTA System V2” kit from Nugen, following the manufacturer's instructions.
3) The SPIA cDNA was subjected to a QC check to assess quality (Agilent 2100 Bioanalyzer) and quantity (Nanodrop ND-1000 Spectrophotometer) for the next stage.
4) The SPIA cDNA was fragmented and Biotin-labelled using the “Encore Biotin Module” from Nugen according to the manufacturer's instructions and passed through QC checks to assess fragmentation size (Agilent 2100 Bioanalyzer).
6) Hybridization cocktails were prepared of the fragmented labelled-cDNA according to Nugen's recommendations and hybridized at 45° C. overnight in an oven.
7) The arrays were washed and stained using wash protocol FS450_0002 (Affymetrix protocol recommended for Human Gene 2.0 Arrays on the GeneChip Fluidics station 450.
8) The arrays were scanned using the Affymetrix GeneChip Scanner.
Gene expression analyses were performed on Tregs from CD patients expanded in the presence of Rapa+ATRA, Rapa+RAR568 or rapamycin only (n=3 in each group). […] CD161 has previously been described as a marker of T helper (Th) 17-like Tregs^32. This was not observed in the RAR568-treated group. […] IL-18 Receptor 1 and STAT4 are responsible for Th1 lineage commitment and IFNγ production, both have been independently identified as IBD disease related polymorphisms on GWAS^33-36. CD38 has been identified as a marker associated with mature T cells, signaling reduced proliferation, but an increased ability to produce pro-inflammatory cytokines such as IFNγ^37. Ligation of GPR174 negatively affects Treg accumulation and function^38. No clear difference in transcripts for canonical pathways were identified when ATRA treated cells were compared with RAR568 treated cells.
To assess for off target RARγ effects, we compared the gene expression profiles of RAR568 and ATRA treated cells to a published dataset of RARγ target genes^39. […] Given the efficacy at inducing α4β7 and lack of off target effects, RAR568 fulfilled the target product profile for an agent that could be used for ex vivo Treg expansion for cell-based therapy purposes. Therefore, we probed this effect of RAR568 on Tregs from CD patients in functional in vitro and in vivo trafficking assays.

The next test has as its target T1, RARβ (Homo sapiens, UniProt P10826).
T1 sequence (P10826 1-455): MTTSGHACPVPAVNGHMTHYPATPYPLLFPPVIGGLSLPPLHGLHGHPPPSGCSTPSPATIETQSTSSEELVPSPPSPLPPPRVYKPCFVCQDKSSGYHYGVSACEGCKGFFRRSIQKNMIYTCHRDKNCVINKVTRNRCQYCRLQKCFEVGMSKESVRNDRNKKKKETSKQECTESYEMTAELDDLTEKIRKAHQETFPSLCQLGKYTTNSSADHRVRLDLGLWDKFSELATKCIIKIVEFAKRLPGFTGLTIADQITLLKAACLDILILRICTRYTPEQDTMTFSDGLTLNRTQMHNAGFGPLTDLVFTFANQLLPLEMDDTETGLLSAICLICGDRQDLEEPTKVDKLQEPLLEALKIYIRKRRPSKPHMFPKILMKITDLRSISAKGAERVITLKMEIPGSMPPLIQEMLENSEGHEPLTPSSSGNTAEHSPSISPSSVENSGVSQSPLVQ
Briefly: Selectivity profile against human RARs (RARβ). It counts as biochemical.

In another test the test system is integrin α4β7 on Tregs. Briefly: α4β7 expression on ex vivo expanded CD45RA+ Tregs from CD patients (flow cytometry). It counts as cell-based, human. The conditions noted are these: CD4+CD25hiCD127loCD45RA+ Tregs cultured with rapamycin and high dose IL-2 plus the agonist; mean ± SD. The protocol:
“Complete X-VIVO-15” (Lonza, Walkersville, MD) was used for ex vivo Treg expansion, Treg cytokine challenge experiments and Treg suppression assays. This was supplemented with 100 nM or 10 nM Rapamycin and all-trans retinoic acid (ATRA) 2 μM or 1 nM, or Rapamycin and RAR568 1 nM.
FACS-sorted Treg populations were plated at 1×10^6 or 0.5×10^6 in X-VIVO-15 medium and activated with anti-CD3/anti-CD28 coated beads (Dynabeads®, Invitrogen, Paisley, UK) at 1:1 bead: cell ratio. Rapamycin was added at day 0 of culture at a final concentration of 100 nM/L +/−ATRA 1 nM/L or RAR568 1 nM/L. Next, 1,000 IU/ml recombinant human IL-2 (rhlL-2) (Proleukin®, Novartis, Camberley, UK) was added at day 5 of culture. Cells were re-stimulated every 10-12 days and expanded for a total of 24-30 days. The phenotype and suppressive ability were assessed at the end of the culture period.
Flow cytometry panels have been designed to assess the subtypes of regulatory T cells in patients with CD as well as their expression of gut homing molecules. Gating was performed based on natural populations when assessing for CD4^+CD25^highCD127low populations, as well as for CD45RA^+ Treg populations. Additionally, to minimize bias in the assessment of expression of gut homing markers and transcription factors, a fluorochrome minus one (FMO) panel was added for each marker of interest in each experiment that was performed. […]

SMILES strings stand for the structures. Several values for one entry are separate records, joined by “and”; a condition that tells them apart may be missing. Identical values can stand only once.

Consider `CCOc1c(Cl)cc(C(=O)Nc2ccc(C(=O)O)c(C)c2)cc1OC(C)C` [RAR568], for which the “transcripts for CD161” value in the test with Tregs from CD patients is listed as “not observed”. Also, the “selectivity for RARα over RARβ” value on RARβ is given as 290 fold. In the test on integrin α4β7 on Tregs, the “α4β7 expression of expanded Tregs” value was 95.9±1.93 and 95.89±1.93.
